Our source for the IC50 values is US8143290B2, “Chemical compounds 572” (AstraZeneca AB, priority 2006, dated 2012).

Molecules are shown by their SMILES.

This experiment has as its target T1, recombinant human GR (Homo sapiens, UniProt P04150).
T1 construct: purchased Panvera/Invitrogen P2812 (kit P2893)
T1 sequence (P04150 1-777): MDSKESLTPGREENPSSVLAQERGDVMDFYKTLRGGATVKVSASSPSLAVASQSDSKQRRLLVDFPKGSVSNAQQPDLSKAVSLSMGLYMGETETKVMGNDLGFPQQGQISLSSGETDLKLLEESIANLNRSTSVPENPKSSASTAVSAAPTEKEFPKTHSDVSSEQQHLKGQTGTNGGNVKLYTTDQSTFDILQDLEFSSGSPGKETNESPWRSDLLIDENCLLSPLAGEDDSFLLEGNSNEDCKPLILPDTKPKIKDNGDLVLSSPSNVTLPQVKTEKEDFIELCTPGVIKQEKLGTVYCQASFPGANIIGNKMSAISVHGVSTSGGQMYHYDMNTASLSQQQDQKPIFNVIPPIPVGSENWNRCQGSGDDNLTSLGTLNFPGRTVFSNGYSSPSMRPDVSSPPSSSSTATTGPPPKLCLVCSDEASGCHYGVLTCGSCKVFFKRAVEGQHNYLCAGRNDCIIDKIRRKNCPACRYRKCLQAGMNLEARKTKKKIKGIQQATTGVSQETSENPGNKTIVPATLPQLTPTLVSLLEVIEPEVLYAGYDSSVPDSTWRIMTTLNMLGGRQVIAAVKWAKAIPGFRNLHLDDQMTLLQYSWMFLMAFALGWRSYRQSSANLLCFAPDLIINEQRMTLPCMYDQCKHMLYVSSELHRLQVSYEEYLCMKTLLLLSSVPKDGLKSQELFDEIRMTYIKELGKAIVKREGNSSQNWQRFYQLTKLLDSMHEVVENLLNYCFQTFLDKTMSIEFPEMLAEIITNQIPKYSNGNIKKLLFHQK
The experiment is described as follows: Human Glucocorticoid Receptor (GR) Assay, fluorescence polarization. The format is binding. The following applies: GS Red tracer, incubated 2 h at r.t., XLfit model 205, read-out: GRhuFL_FP_v2 Mean IC50. The protocol: Human Glucocorticoid Receptor (GR) Assay
The assay is based on a commercial kit from Panvera/Invitrogen (Part number P2893). The assay technology is fluorescence polarization. […] The GR and Stabilizing Peptide reagents are stored at −70° C. while the GS Red is stored at −20° C. Also included in the kit are 1M DTT (Panvera, Part number P2325, stored at −20° C.) and GR Screening buffer 10× (Panvera, Part number P2814, stored at −70° C. initially but once thawed stored at r.t.). Avoid repeated freeze/thaws for all reagents. The GR Screening buffer 10× comprises 100 mM potassium phosphate, 200 mM sodium molybdate, 1 mM EDTA and 20% DMSO.
0% control was 100% DMSO and 100% control was […] Dexamethasone. Background solution (8 μL; assay buffer 10×, Stabilizing Peptide, DTT and ice cold MQ water) was added to the background wells. GS Red solution (7 μL; assay buffer 10×, Stabilizing Peptide, DTT, GS Red and ice cold water) was added to all wells except background wells. GR solution (7 μL; assay buffer 10×, Stabilizing Peptide, DTT, GR and ice cold water) was added to all wells. The plate was sealed and incubated in a dark at r.t. for 2 h.

The term IC50 denotes the concentration needed to halve the response being measured. On to `COCC(=O)N[C@@H](CO)C(Oc1ccc2c(cnn2-c2ccc(F)cc2)c1)c1cccc(F)c1` (mixture of isomers) [Example 113, N-[(1S)-2-(3-Fluorophenyl)-2-{[1-(4-fluorophenyl)-1H-indazol-5-yl]oxy}-1-(hydroxymethyl)ethyl]-2-methoxyacetamide], for which the concentration for half-maximal inhibition (IC50) is 24 nM.
For the compound `C[C@H](NC(=O)C(F)(F)F)[C@H](COc1ccccc1)Oc1ccc2c(cnn2-c2ccc(F)cc2)c1` (racemic) [Example 70, 2,2,2-Trifluoro-N-[(2RS,3SR)-3-[1-(4-fluorophenyl)indazol-5-yl]oxy-4-phenoxy-butan-2-yl]acetamide], the half-inhibitory concentration (IC50) was 89 nM.
For `C[C@H](NC(=O)C(F)(F)F)[C@H](Oc1cc2cnn(-c3ccc(F)cc3)c2cc1Cl)c1ccc(F)cc1` (racemic) [Example 99, N-[(1RS,2SR)-1-[6-chloro-1-(4-fluorophenyl)indazol-5-yl]oxy-1-(4-fluorophenyl)propan-2-yl]-2,2,2-trifluoro-acetamide], the IC50 turned out to be 3.8 nM.
On to `CC(=O)NC(C)C(Oc1cc2cnn(-c3ccc(F)cc3)c2cc1Cl)c1ccc(F)cc1` (racemic) [Example 100, N-[(1RS,2SR)-1-[6-chloro-1-(4-fluorophenyl)indazol-5-yl]oxy-1-(4-fluorophenyl)propan-2-yl]acetamide], for which the IC50 amounted to 9.2 nM.
The same measure for `C[C@H](NC(=O)C(F)(F)F)[C@@H](COc1ccccc1)Oc1ccc2c(cnn2-c2ccc(F)cc2)c1` (single isomer, unassigned) [Example 68, 2,2,2-Trifluoro-N-[(2S*,3S*)-3-[1-(4-fluorophenyl)indazol-5-yl]oxy-4-phenoxy-butan-2-yl]acetamide]: 1.7 nM.
The result for `C[C@@H](NC(=O)C(F)(F)F)[C@H](COc1ccccc1)Oc1ccc2c(cnn2-c2ccc(F)cc2)c1` (single isomer, unassigned) [Example 69, 2,2,2-trifluoro-N-[2R*,3R*-3-[1-(4-fluorophenyl)indazol-5-yl]oxy-4-phenoxy-butan-2-yl]acetamide] reads 76 nM; that for `CC(=O)N[C@@H](C)[C@H](Oc1cc2cnn(-c3ccc(F)cc3)c2cc1Cl)c1ccc(F)cc1` (single isomer, unassigned) [Example 101, N-[(1S*,2R*)-1-[6-chloro-1-(4-fluorophenyl)indazol-5-yl]oxy-1-(4-fluorophenyl)propan-2-yl]acetamide], 15 nM.
Consider `CC(=O)N[C@@H](C)[C@H](Oc1cc2cnn(-c3ccc(F)cc3)c2cc1Cl)c1ccc(F)cc1` (single isomer, unassigned) [Example 102, N-[(1R*,2S*)-1-[6-chloro-1-(4-fluorophenyl)indazol-5-yl]oxy-1-(4-fluorophenyl)propan-2-yl]acetamide], for which the IC50 stood at 2.5 nM.
The result for `CC(C)(C)C(=O)NC(C(Oc1ccc2c(cnn2-c2ccc(F)cc2)c1)c1ccccc1)C(F)(F)F` (single isomer, unassigned) [Example 147D1E1, N-(1,1,1-trifluoro-3-(1-(4-fluorophenyl)-1H-indazol-5-yloxy)-3-phenylpropan-2-yl)pivalamide] reads 97 nM; that for `CC(C)(C)C(=O)NC(C(Oc1ccc2c(cnn2-c2ccc(F)cc2)c1)c1ccccc1)C(F)(F)F` (single isomer, unassigned) [Example 147D1E2, N-(1,1,1-trifluoro-3-(1-(4-fluorophenyl)-1H-indazol-5-yloxy)-3-phenylpropan-2-yl)pivalamide], 24 nM.
The result for `CC(C)(C)C(=O)NC(C(Oc1ccc2c(cnn2-c2ccc(F)cc2)c1)c1ccccc1)C(F)(F)F` (single isomer, unassigned) [Example 147D2E1, N-(1,1,1-trifluoro-3-(1-(4-fluorophenyl)-1H-indazol-5-yloxy)-3-phenylpropan-2-yl)pivalamide] reads 7.4 nM.
With `CC(C)(C)C(=O)NC(C(Oc1ccc2c(cnn2-c2ccc(F)cc2)c1)c1ccccc1)C(F)(F)F` (single isomer, unassigned) [Example 147D2E2, N-(1,1,1-trifluoro-3-(1-(4-fluorophenyl)-1H-indazol-5-yloxy)-3-phenylpropan-2-yl)pivalamide], the IC50 is 12 nM.
On to `Cc1cc(C)c([C@@H](Oc2ccc3c(cnn3-c3ccc(F)cc3)c2)[C@H](C)NC(=O)C(C)(C)C)cc1C` (stereo in doubt) [Example 267, N-[(1R,2S)-1-[1-(4-fluorophenyl)indazol-5-yl]oxy-1-(2,4,5-trimethylphenyl)propan-2-yl]-2,2-dimethyl-propanamide], for which the IC50 stood at 3.7 nM.
Regarding `COc1ccc(F)cc1[C@@H](Oc1ccc2c(cnn2-c2ccc(F)cc2)c1)[C@H](C)NC(=O)C1(C)CC1` (stereo in doubt) [Example 268, N-[(1R,2S)-1-(5-fluoro-2-methoxy-phenyl)-1-[1-(4-fluorophenyl)indazol-5-yl]oxy-propan-2-yl]-1-methyl-cyclopropane-1-carboxamide], the 50% inhibitory concentration (IC50) was 3.1 nM.
Take `CCC(=O)N[C@@H](C)[C@H](Oc1ccc2c(cnn2-c2ccc(F)cc2)c1)c1ccccc1` [Example 3, N-((1S,2R)-2-{[1-(4-fluorophenyl)-1H-indazol-5-yl]oxy}-1-methyl-2-phenylethyl)propanamide]: the IC50 worked out at 3.2 nM.
As for `COC(=O)N[C@@H](C)[C@H](Oc1ccc2c(cnn2-c2ccc(F)cc2)c1)c1ccccc1` [Example 4, Methyl ((1S,2R)-2-{[1-(4-fluorophenyl)-1H-indazol-5-yl]oxy}-1-methyl-2-phenylethyl)carbamate], the IC50 turned out to be 5.9 nM.
Take `C[C@H](NC(=O)C(C)(C)O)[C@H](Oc1ccc2c(cnn2-c2ccc(F)cc2)c1)c1ccccc1` [Example 5, N-[(1R,2S)-1-[1-(4-fluorophenyl)indazol-5-yl]oxy-1-phenyl-propan-2-yl]-2-hydroxy-2-methyl-propanamide]: the half-maximal inhibitory concentration (IC50) was 2.1 nM.
Consider `COCC(=O)N[C@@H](C)[C@H](Oc1ccc2c(cnn2-c2ccc(F)cc2)c1)c1ccc(SC)cc1` [Example 9, N-[(1R,2S)-1-[1-(4-fluorophenyl)indazol-5-yl]oxy-1-(4-methylsulfanylphenyl)propan-2-yl]-2-methoxy-acetamide], for which the IC50 is 2 nM.
The same measure for `CSc1ccc([C@@H](Oc2ccc3c(cnn3-c3ccc(F)cc3)c2)[C@H](C)NC(=O)COC(C)=O)cc1` [Example 10, N-[(1R,2S)-1-[1-(4-fluorophenyl)indazol-5-yl]oxy-1-(4-methylsulfanylphenyl)propan-2-yl]carbamoylmethyl acetate]: 2.4 nM.
As to `CSc1ccc([C@@H](Oc2ccc3c(cnn3-c3ccc(F)cc3)c2)[C@H](C)NC(=O)CO)cc1` [Example 11, N-[(1R,2S)-1-[1-(4-fluorophenyl)indazol-5-yl]oxy-1-(4-methylsulfanylphenyl)propan-2-yl]-2-hydroxy-acetamide], the IC50 was 2.1 nM.
The same measure for `C[C@H](NC(=O)C(F)(F)F)[C@H](Oc1ccc2c(cnn2-c2ccc(F)cc2)c1)c1ccc(SC2CC2)cc1` [Example 15, N-[(1R,2S)-1-(4-cyclopropylsulfanylphenyl)-1-[1-(4-fluorophenyl)indazol-5-yl]oxy-propan-2-yl]-2,2,2-trifluoro-acetamide]: 6.8 nM; for `C[C@H](NC(=O)CO)[C@H](Oc1ccc2c(cnn2-c2ccc(F)cc2)c1)c1ccccc1` [Example 16, N-[(1R,2S)-1-[1-(4-fluorophenyl)indazol-5-yl]oxy-1-phenyl-propan-2-yl]-2-hydroxy-acetamide]: 2.4 nM.
